Measured values from ChEMBL document CHEMBL1148904, “Iridoid glycosides from Eremostachys glabra” (J Nat Prod, 2004).

These compounds were tested on Radical scavenging activity (assay: Antioxidant activity assessed as DPPH radical scavenging activity after 30 mins).
Assay type: functional
Compound `COC(=O)C1=CO[C@@H](O[C@@H]2O[C@H](CO)[C@@H](O)[C@H](O)[C@H]2O)[C@@H]2[C@@H]1[C@@H](O)C[C@]2(C)OC(C)=O` has an RC50 of 1.1 ×10⁻¹ mg/ml.
Compound `O=c1c(O)c(-c2ccc(O)c(O)c2)oc2cc(O)cc(O)c12` has an RC50 of 2.88 ×10⁻⁵ mg/ml.
With `COC(=O)C1=CO[C@@H](O[C@@H]2O[C@H](CO)[C@@H](O)[C@H](O)[C@H]2O)[C@H]2[C@H](C)C[C@@H](O)[C@@]12O` the RC50 was 4.9 ×10⁻¹ mg/ml.
With `COC(=O)C1=CO[C@@H](O[C@@H]2O[C@H](CO)[C@@H](O)[C@H](O)[C@H]2O)[C@H]2C(C)=C[C@@H](O)[C@@]12O` the RC50 was 4.1 ×10⁻¹ mg/ml.
